According to US8349805B2, “Use of Gonadorelin as a therapeutic agent” (priority 2007, dated 2013):
Ends that are not written are not given here.

Experiments:
[1] = test system: hepatitis B virus (HBV) ayw strain; assay: HBV replication assay in HepG2-2.2.15 cells (TaqMan PCR of secreted HBV DNA); type: cell-based; conditions: 10 micrograms per ml; HepG2-2.2.15, 6 days; combination 0.95 mole peptide 1 and 1.05 mole peptide 2
A549 cells = assay: Apoptosis prevention assay (C2 ceramide, Annexin-5); type: cell-based, human; conditions: 10 micrograms per ml, 30 min pretreatment, combination 0.95:1.05 mole
[2] = test system: Primary Human endothelial cells (HUVEC); assay: Endothelial cell migration assay; type: cell-based; conditions: 10 micrograms per ml, 22 hours
Method: Thereafter, designated concentration of testing peptides—10 micrograms per ml—was added in duplicate wells.

HCMV strain AD169 = assay: HCMV plaque formation assay in MRC-5 cells; conditions: 10 micrograms per ml, 7-10 days
murine spleen cells = assay: Th1/Th2 cytokine profiling assay; type: cell-based, Balb/c mice; conditions: 10 micrograms per ml; Ovalbumin-restimulated murine spleen cells, 72 hours
From the text: The Balb/c mice (originated in 1923, it is a popular strain and is used in many different research disciplines. Also classified as an inbred from the production of 20 or more successive brother-sister matings, the Balb/c mouse is albino and small in size) were immunized on Days 1, 15, and 29 with Ovalbumin (Ovalbumin is the main protein found in egg white, commonly used to stimulate an immunological reaction in test animals) in PBS (5 micrograms/injection). On day 50, spleens of the mice were harvested (3 weeks after last boost with Ovalbumin). Cells were cultured (2×10^5/well in triplicate) and incubated with culture medium or test peptides—10 micrograms per ml—for 30 min. Thereafter, additional Ovalbumin was added to the cells at 10 micrograms/ml for in vitro restimulation of the cells. 72 hours later, cell supernatants were harvested and assayed using the Becton Dickinson Mouse Th1/Th2 Cytokine CBA Kit.

HUVEC = assay: Endothelial tube formation assay; type: cell-based, human; conditions: 10 micrograms per ml, 20 hours, combination 1.10 mole:0.90 mole
From the text: Positive control was vehicle only.

Molecule | inhibition of HBV replication as compared to the virus control infection [1] | reduction of the ceramide-induced apoptosis on human lung cells (A549 cells) | inhibition of the migration of human endothelial cells ([2]; combination 1.10 mole:0.90 mole) [%] | inhibition of HCMV plaque formation as compared to the virus control (HCMV strain AD169) | change of the production of TNF-alpha (murine spleen cells) | production of IFN-γ (decreased by %) (murine spleen cells) | production of IL-2 (induced by %) (murine spleen cells) | production of IL-4 (decreased by %) (murine spleen cells) | production of IL-5 (decreased by %) (murine spleen cells) [%] | inhibition of the tube formation of human endothelial cells (HUVEC) [%] | increase of the migration of endothelial cells [2] [%]
CC(C)C[C@H](NC(=O)CNC(=O)[C@H](Cc1ccc(O)cc1)NC(=O)[C@H](CO)NC(=O)[C@H](Cc1c[nH]c2ccccc12)NC(=O)[C@H](Cc1cnc[nH]1)NC(=O)[C@@H]1CCC(=O)N1)C(=O)N[C@@H](CCCNC(=N)N)C(=O)N1CCC[C@H]1C(=O)NCC(N)=O [Peptide 1] | 30.4% | 27.05% | 39 | did not inhibit | did not significantly change | did not significantly change | 43.6% | 65.9% | 44.1 | 6 | –
Met-Gln-Met-Lys-Lys-Val-Leu-Asp-Ser-OH (MQMKKVLDS-OH) [Peptide 2] | no effect | did not reduce | – | did not inhibit | did not significantly change | 27.5% | did not significantly change | did not significantly change | 38.8 | 4 | 16
